Test results as given in ChEMBL document CHEMBL3091401, “Discovery of a potent respiratory syncytial virus RNA polymerase inhibitor” (Bioorg Med Chem Lett, 2013).
Converted amounts (≈) assume the structure as drawn.

Legend:
[1] = Cytotoxicity against human Hep2 cells; format: cell-based, HEp-2
[2] = Aqueous solubility of the compound; format: physicochemical; conditions: buffer
[3] = system: Respiratory syncytial virus; assay: Antiviral activity against Respiratory syncytial virus B-Washington infected in human Hep2 cells after 3 days by ELISA; format: functional, organism-based; conditions: HEp-2, 72 h
[4] = system: Respiratory syncytial virus; assay: Antiviral activity against Respiratory syncytial virus A2 infected in human Hep2 cells after 3 days by ELISA; format: functional, organism-based; conditions: A2, HEp-2, 72 h
[5] = system: Respiratory syncytial virus; assay: Antiviral activity against Respiratory syncytial virus A2 infected in hamster BHK21 cells after 2 days by luciferase reporter gene assay; format: functional, organism-based; conditions: human respiratory syncytial virus, A2, BHK-21, 48 h
[6] = Cytotoxicity against hamster BHK21 cells; format: cell-based, Mesocricetus auratus, BHK-21
[7] = Absorption half life in rat lungs at 10 ug/kg administered intratracheally as solution; format: ADME, tissue-based; conditions: lung, inhaled or intranasal, 0.01 mg/kg, read-out: t1/2abs

SMILES | solubility [2] [µM] | EC50 [3] [µM] | EC50 [4] [µM] | EC50 [5] [µM] | half-life [7] [min] | CC50 [1] [µM] | CC50 [6] [µM]
O=C(NC1CC1)c1cc2c(s1)-c1ccccc1N(C(=O)c1ccc(NC(=O)c3cccnc3N3CCC4(CCOCC4)CC3)cc1)CC2 | < 1 | 2.2 | 0.03 | 0.04 |  | > 50 | 
O=C(NC1CC1)c1cc2c(s1)-c1ccccc1N(C(=O)c1ccc(NC(=O)c3ccncc3N3CCC4(CC3)COC4)cc1)CC2 | < 1 | 5.1 | < 0.21 | 0.16 |  | 4.8 | 
O=C(NC1CC1)c1cc2c(s1)-c1ccccc1N(C(=O)c1ccc(NC(=O)c3ncccc3N3CCC4(CC3)COC4)cc1)CC2 | < 1 | 49 | 0.47 | 0.35 |  | 43 | 
COc1ccc(C(=O)Nc2ccc(C(=O)N3CCc4cc(C(=O)NC5CC5)sc4-c4ccccc43)cc2)c(N2CCC3(CC2)COC3)n1 | < 1 | 1.8 | < 0.21 | 0.02 |  | > 50 | 
O=C(NC1CC1)c1cc2c(s1)-c1ccccc1N(C(=O)c1ccc(NC(=O)c3cccnc3N3CCCC3)nc1)CC2 | 3 (≈ 1.74 µg/mL) | > 50 | > 50 | > 50 |  |  | > 50
O=C(NC1CC1)c1cc2c(s1)-c1ccccc1N(C(=O)[C@H]1CC[C@H](NC(=O)c3cccnc3N3CCCC3)CC1)CC2 | 11 (≈ 6.42 µg/mL) |  |  | > 50 |  |  | > 50
O=C(NC1CC1)c1cc2c(s1)-c1ccccc1N(C(=O)[C@H]1C[C@@H](NC(=O)c3cccnc3N3CCCC3)C1)CC2 | 2 (≈ 1.11 µg/mL) |  |  | > 50 |  |  | > 50
O=C(NC1CC1)c1cc2c(s1)-c1ccccc1N(C(=O)[C@H]1C[C@H](NC(=O)c3cccnc3N3CCCC3)C1)CC2 | 3 (≈ 1.67 µg/mL) |  |  | 16 |  |  | > 50
O=C(NC1CC1)c1cc2c(s1)-c1cccnc1N(C(=O)c1ccc(NC(=O)c3cccnc3N3CCCC3)cc1)CC2 | 10 (≈ 5.79 µg/mL) | > 50 | 7.8 | 8.6 |  |  | > 50
O=C(NC1CC1)c1cn2c(n1)-c1ccccc1N(C(=O)c1ccc(NC(=O)c3cccnc3N3CCCC3)cc1)CC2 | 121 (≈ 68 µg/mL) | 50 | 50 | 22 |  |  | > 50
O=C(NC1CC1)c1cc2c(s1)-c1ccccc1N(C(=O)c1ccc(NC(=O)c3cccnc3N3CCOCC3)cc1)CC2 | 36 (≈ 21.4 µg/mL) | 17 | 0.23 | 0.63 |  | > 50 | 
O=C(NC1CC1)c1cc2c(s1)-c1ccccc1N(C(=O)c1ccc(NC(=O)c3cccnc3N3CC[S+]([O-])CC3)cc1)CC2 | 26 (≈ 16.3 µg/mL) | > 50 | 9.6 | 12 |  | > 50 | 
O=C(NC1CC1)c1cc2c(s1)-c1ccccc1N(C(=O)c1ccc(NC(=O)c3cccnc3N3CCC4(CC3)COC4)cc1)CC2 | 2 (≈ 1.27 µg/mL) | 1 | 0.01 | 0.01 | < 1 | > 50 | 
CN1CC2(CCN(c3ncccc3C(=O)Nc3ccc(C(=O)N4CCc5cc(C(=O)NC6CC6)sc5-c5ccccc54)cc3)CC2)C1 | 55 (≈ 35.6 µg/mL) | 17 | 34 | 8.5 |  | 34 | 
O=C(NC1CC1)c1cc2c(s1)-c1ccccc1N(C(=O)c1ccc(NC(=O)c3cccnc3N3CCCC3)cn1)CC2 | 3 (≈ 1.74 µg/mL) | > 50 | 2.4 | 3.7 |  |  | > 50

Continued, in another order:

solubility [2] [µM] | EC50 [3] [µM] | EC50 [4] [µM] | EC50 [5] [µM] | half-life [7] [min] | SMILES | CC50 [1] [µM] | CC50 [6] [µM]
< 1 | 0.5 | 0.01 | < 0.007 |  | O=C(NC1CC1)c1cc2c(s1)-c1ccccc1N(C(=O)c1ccc(NC(=O)c3cccnc3N3CC4(CCOCC4)C3)cc1)CC2 | > 50 | 
9 (≈ 5.7 µg/mL) | 14 | 0.68 | 0.57 |  | O=C(NC1CC1)c1cc2c(s1)-c1ccccc1N(C(=O)c1ccc(NC(=O)c3cnccc3N3CCC4(CC3)COC4)cc1)CC2 | 34 | 
< 1 | > 50 | < 0.21 | 0.19 |  | O=C(NC1CC1)c1cc2c(s1)-c1ccccc1N(C(=O)c1ccc(NC(=O)c3ccccc3N3CCC4(CC3)COC4)cc1)CC2 | > 50 | 
26 (≈ 15.2 µg/mL) |  |  | 14 |  | O=C(NC1CC1)c1cc2c(s1)-c1ccccc1N(C(=O)N1CCC(NC(=O)c3cccnc3N3CCCC3)CC1)CC2 |  | > 50
1 (≈ 0.579 µg/mL) | > 50 | 1.1 | 2.2 |  | O=C(NC1CC1)c1cc2c(s1)-c1cnccc1N(C(=O)c1ccc(NC(=O)c3cccnc3N3CCCC3)cc1)CC2 |  | > 50
32 (≈ 18 µg/mL) | 50 | 20 | 9 |  | O=C(NC1CC1)c1cc2n(n1)CCN(C(=O)c1ccc(NC(=O)c3cccnc3N3CCCC3)cc1)c1ccccc1-2 |  | > 50
40 (≈ 25.5 µg/mL) | > 50 | 8 | 13 |  | O=C(NC1CC1)c1cc2c(s1)-c1ccccc1N(C(=O)c1ccc(NC(=O)c3cccnc3N3CCN(CCO)CC3)cc1)CC2 | > 50 | 
4 (≈ 2.57 µg/mL) | > 50 | 2.2 | 3.6 |  | O=C(NC1CC1)c1cc2c(s1)-c1ccccc1N(C(=O)c1ccc(NC(=O)c3cccnc3N3CCS(=O)(=O)CC3)cc1)CC2 | > 50 | 
> 100 | > 50 | > 50 | > 50 |  | CN(C)CC1(O)CN(c2ncccc2C(=O)Nc2ccc(C(=O)N3CCc4cc(C(=O)NC5CC5)sc4-c4ccccc43)cc2)C1 | > 50 | 
4 (≈ 2.7 µg/mL) | 39 | 5.3 | 9 |  | CC(=O)N1CC2(CCN(c3ncccc3C(=O)Nc3ccc(C(=O)N4CCc5cc(C(=O)NC6CC6)sc5-c5ccccc54)cc3)CC2)C1 | 34 | 
< 1 | > 50 | 0.15 | 0.31 |  | O=C(NC1CC1)c1cc2c(s1)-c1ccccc1N(C(=O)c1ccc(NC(=O)c3cccnc3N3CCCC3)cc1)CC2 | > 50 | > 50
